Columns and labels:
[1] = biological target: T1, Peroxisome proliferator-activated receptor gamma (Homo sapiens) (UniProt P37231); experiment: Displacement of fluormone PPAR-green from N-terminal His-tagged human PPARgamma-LBD assessed as logarithm unit binding affinity value at 10 uM after 2 hrs by fluorescence polarization assay
T1 sequence (whole entry): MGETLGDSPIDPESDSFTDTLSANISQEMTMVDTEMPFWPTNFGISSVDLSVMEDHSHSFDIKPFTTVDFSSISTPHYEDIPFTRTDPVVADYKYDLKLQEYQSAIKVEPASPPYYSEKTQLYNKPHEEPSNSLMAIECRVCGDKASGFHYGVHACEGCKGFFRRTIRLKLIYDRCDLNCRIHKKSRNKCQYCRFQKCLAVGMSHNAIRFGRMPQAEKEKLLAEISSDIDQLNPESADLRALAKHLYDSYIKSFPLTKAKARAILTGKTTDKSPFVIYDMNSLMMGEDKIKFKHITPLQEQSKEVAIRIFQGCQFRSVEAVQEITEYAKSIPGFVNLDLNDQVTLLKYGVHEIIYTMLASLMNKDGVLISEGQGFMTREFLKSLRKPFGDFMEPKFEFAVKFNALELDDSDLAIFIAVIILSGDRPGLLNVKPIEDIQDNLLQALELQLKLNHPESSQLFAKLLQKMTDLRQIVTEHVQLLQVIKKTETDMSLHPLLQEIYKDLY

[2] = biological target: T2, Peroxisome proliferator-activated receptor gamma (Homo sapiens, UniProt P37231); experiment: Partial agonist activity at human PPARgamma-LBD expressed in HEK293T cells assessed as induction of receptor transactivation after 24 hrs by luciferase reporter gene assay; assay type: functional, cell-based, HEK-293T
T2 sequence (P37231 whole entry): T1 sequence (whole entry)

[3] = biological target: T2, Peroxisome proliferator-activated receptor gamma; experiment: Displacement of fluormone PPAR-green from N-terminal His-tagged human PPARgamma-LBD after 2 hrs by fluorescence polarization assay

Row | SMILES | binding affinity [1] | EC50 [2] [µM] | IC50 [3] [µM]
1 | Cc1ccc(-c2nn(-c3ccccc3)cc2C(=O)Oc2ccccc2)cc1 | 1.31 | – | –
2 | COc1cc(C=O)ccc1OC(=O)c1cn(-c2ccccc2)nc1-c1ccc(F)cc1 | 1.82 | – | –
3 | Cc1ccc(-c2nn(-c3ccccc3)cc2C(=O)NCC(=O)c2ccccc2)cc1 | 1.26 | – | –
4 | CC(=O)Nc1ccc(OC(=O)c2cn(-c3ccccc3)nc2-c2ccccc2)cc1 | 1.58 | – | –
5 | COc1ccc(-c2nn(-c3ccccc3)cc2C(=O)Oc2ccccc2)cc1 | 1.45 | – | –
6 | O=C(COC(=O)c1cn(-c2ccccc2)nc1-c1ccc(Cl)cc1)c1ccccc1 | 1.15 | – | –
7 | COc1ccc(-c2nn(-c3ccccc3)cc2C(=O)Oc2ccc(C)cc2)cc1OC | 1.85 | – | –
8 | O=C(COC(=O)c1cn(-c2ccccc2)nc1-c1ccccc1)c1ccc(Cl)c([N+](=O)[O-])c1 | 1.98 | – | –
9 | CC(C)S(=O)(=O)c1ccc(COC(=O)c2cn(-c3ccccc3)nc2-c2ccccc2)cc1 | 1.72 | – | –
10 | COc1ccc(-c2nn(-c3ccccc3)cc2C(=O)OCC(=O)c2ccccc2Cl)cc1 | 1.37 | – | –
11 | COc1ccc(-c2nn(-c3ccccc3)cc2C(=O)OCC(=O)c2ccc([N+](=O)[O-])cc2)cc1 | 1.57 | – | –
12 | O=C(N/N=C/c1cn(-c2ccccc2)nc1-c1ccc(F)cc1)C(O)c1ccccc1 (stereo not drawn) | 1.68 | – | –
13 | O=C(Oc1ccccc1)c1cn(-c2ccccc2)nc1-c1ccc(F)cc1 | 1.55 | – | –
14 | COc1ccc(-c2nn(-c3ccccc3)cc2C(=O)OCC(=O)c2ccc(Br)cc2)cc1 | 1.2 | – | –
15 | COc1cc(C=O)ccc1OC(=O)c1cn(-c2ccccc2)nc1-c1ccc(Cl)cc1 | 1.81 | – | –
16 | S=C(NCc1ccco1)NCc1cn(-c2ccccc2)nc1-c1ccccc1 | 1.73 | – | –
17 | Fc1ccc(-c2nn(-c3ccccc3)cc2CNCc2ccccc2)cc1 | 1.63 | – | –
18 | O=C(N/N=C/c1cn(-c2ccccc2)nc1-c1ccccc1)c1ccc([N+](=O)[O-])cc1 | 1.37 | – | –

Row | SMILES | binding affinity [1] | EC50 [2] [µM] | IC50 [3] [µM]
19 | COc1ccc(-c2nn(-c3ccccc3)cc2C(=O)OCC(=O)c2ccc(C)c([N+](=O)[O-])c2)cc1 | 1.05 | – | –
20 | COc1cc(C=O)ccc1OC(=O)c1cn(-c2ccccc2)nc1-c1ccc(OC)c([N+](=O)[O-])c1 | 1.36 | – | –
21 | COc1cc(C=O)ccc1OC(=O)c1cn(-c2ccccc2)nc1-c1ccc(Br)cc1 | 1.73 | – | –
22 | COc1cc(C=O)ccc1OC(=O)c1cn(-c2ccccc2)nc1-c1ccc(C2COCCO2)cc1 (stereo not drawn) | 1.5 | – | –
23 | COc1ccc(-c2nn(-c3ccccc3)cc2C(=O)Oc2ccccc2)cc1OC | 1.64 | – | –
24 | CC(=O)c1ccc(OC(=O)c2cn(-c3ccccc3)nc2-c2ccccc2)cc1 | 1.38 | – | –
25 | O=C(Oc1cccc2cccnc12)c1cn(-c2ccccc2)nc1-c1ccccc1 | 1.52 | – | –
26 | O=C(Oc1ccc([N+](=O)[O-])cc1)c1cn(-c2ccccc2)nc1-c1ccccc1 | 1.9 | 2.29 | 0.973
27 | O=C(Oc1ccccc1)c1cn(-c2ccccc2)nc1-c1cccc([N+](=O)[O-])c1 | 1.38 | – | –
28 | O=C(Oc1ccccc1)c1cn(-c2ccccc2)nc1-c1ccccc1 | 1.63 | – | –
29 | COc1ccc(-c2nn(-c3ccccc3)cc2C(=O)Oc2ccc(C=O)cc2OC)cc1OC | 1.82 | – | –
30 | COc1cc(C=O)ccc1OC(=O)c1cn(-c2ccccc2)nc1-c1ccccc1 | 1.99 | – | –
31 | O=C(OCc1ccc([N+](=O)[O-])cc1)c1cn(-c2ccccc2)nc1-c1ccccc1 | 1.38 | – | –
32 | COc1cc(C=O)ccc1OC(=O)c1cn(-c2ccccc2)nc1-c1ccc(C)cc1 | 1.81 | – | –
33 | O=C(Oc1ccccc1)c1cn(-c2ccccc2)nc1-c1ccc(Br)cc1 | 1.22 | – | –
34 | COc1cc(C=O)ccc1OC(=O)c1cn(-c2ccccc2)nc1-c1ccc([N+](=O)[O-])cc1 | 1.35 | – | –
35 | O=C(Oc1ccccc1)c1cn(-c2ccccc2)nc1-c1ccc(Cl)cc1 | 1.15 | – | –
36 | COc1ccc(-c2nn(-c3ccccc3)cc2C(=O)OCC(=O)c2ccc(Cl)cc2)cc1 | 1.42 | – | –

— ChEMBL document CHEMBL1629419, “1,3-Diphenyl-1H-pyrazole derivatives as a new series of potent PPARγ partial agonists” (Bioorg Med Chem, 2010)
